These are literature values, as cited in patent US20250367153A1, “COMPOSITION AND APPLICATION THEREOF” (priority 2024, published 2025).

As a reminder, the LD50 is the dose expected to kill half of the subjects tested.

Data set [1] deals with rat, mouse, and guinea pig.

Turning to `O=CC=Cc1ccccc1` [cinnamaldehyde], in data set [1], the LD50 was 3400 mg/kg.

In the case of `OCC=Cc1ccccc1` [cinnamyl alcohol], the LD50 in data set [1] is 2675 mg/kg.

For `NCC(=O)O` [glycine], the “NOAEL (no-observed-adverse-effect level)” value in the data set on rat is given as “at least 2000 mg/kg/day”.

As for phosphatidylserine, the “acute oral LD50” value in the data set with rats and dogs (acute oral) is “greater than 5 g/kg bw”. In addition, the NOAEL with rats and dogs (rats and dogs) is 1,000 mg/kg bw/day.
